≈ marks a conversion by molar mass, not a printed value. Calls of active or inactive are those of the source. No cut-off for these calls is given here.
Legend:
[1] = test system: SH-SY5Y; assay: Antiproliferative activity against human SH-SY5Y cells after 72 hrs by nucleo cell counting method
[2] = Apparent permeability of the compound after 5 hrs by PAMPA; type: ADME
[3] = Metabolic stability in human liver microsomes after 60 mins in presence of NADPH by UV/LC-MS analysis; type: ADME, microsome; conditions: read-out: Stability
[4] = test system: SH-SY5Y; assay: Antiproliferative activity against human SH-SY5Y cells at 1 to 10 uM after 72 hrs by nucleo cell counting method; type: functional, cell-based
[5] = Aqueous solubility in water at 1 mg after 24 hrs at 20 degC by UV/LC-MS analysis; type: physicochemical
[6] = test system: SH-SY5Y; assay: Cell cycle arrest in human SH-SY5Y cells assessed as accumulation at G1 phase after 48 hrs by propidium iodide staining based flow cytometry; type: functional

Row | Compound | IC50 [1] [µM] | Papp at 5 h [2] [×10⁻⁶ cm/s] | remaining at 1 h [3] [%] | Activity [4] | solubility at 24 h [5] [µg/mL] | Activity [6]
1 | CSc1nc(Nc2cc(O)ccc2Cl)c2cnn(CC(C)c3ccccc3)c2n1 (stereo not drawn) | 6.7 | 8.33 | 92.7 | Active | – | –
2 | Oc1cccc(Nc2nc(SCCN3CCOCC3)nc3c2cnn3CC(Cl)c2ccccc2)c1 (stereo not drawn) | – | 4.44 | 98.7 | – | 0.197 (≈ 0.385 µM) | –
3 | CC(Cn1ncc2c(Nc3cccc(O)c3)nc(SCCN3CCOCC3)nc21)c1ccccc1 (stereo not drawn) | – | 6.81 | 99 | – | 0.1 (≈ 0.204 µM) | –
4 | CC(Cn1ncc2c(Nc3cc(O)ccc3Cl)nc(SCCN3CCOCC3)nc21)c1ccccc1 (stereo not drawn) | – | 11.2 | 97.9 | – | 0.031 (≈ 0.059 µM) | –
5 | CSc1nc(Nc2cc(O)ccc2Cl)c2cnn(CC(Cl)c3ccccc3)c2n1 (stereo not drawn) | – | 3.23 | 96.4 | – | – | –
6 | CC(Cn1ncc2c(Nc3cc(O)ccc3Cl)nc(NCCN)nc21)c1ccccc1 (stereo not drawn) | – | 2.2 | 98.4 | – | 0.1 (≈ 0.228 µM) | –
7 | CC(C)Sc1nc(Nc2cccc(O)c2)c2cnn(CC(Cl)c3ccccc3)c2n1 (stereo not drawn) | – | – | 93.5 | – | – | –
8 | Oc1ccc(Cl)c(Nc2ncnc3c2cnn3CC(Cl)c2ccccc2)c1 (stereo not drawn) | – | 4.39 | 86.3 | – | 0.053 (≈ 0.132 µM) | –
9 | CC(Cn1ncc2c(Nc3cc(O)ccc3Cl)nc(NCCO)nc21)c1ccccc1 (stereo not drawn) | – | 0.1 | 97.9 | – | 0.103 (≈ 0.235 µM) | –
10 | Oc1ccc(Cl)c(Nc2nc(SCCN3CCOCC3)nc3c2cnn3CC(Cl)c2ccccc2)c1 (stereo not drawn) | 6.6 | 9.74 | 96.9 | Active | – | –
11 | OCCNc1nc(Nc2cc(O)ccc2Cl)c2cnn(CC(Cl)c3ccccc3)c2n1 (stereo not drawn) | 3.1 | 2.7 | 97.2 | Active | 0.042 (≈ 0.0914 µM) | Dose-dependent effect
12 | CC(Cn1ncc2c(Nc3cccc(O)c3)nc(NCCO)nc21)c1ccccc1 (stereo not drawn) | – | 0.2 | 99.4 | – | 134 (≈ 332 µM) | –

From ChEMBL document CHEMBL4265961, “Efficient optimization of pyrazolo[3,4-d]pyrimidines derivatives as c-Src kinase inhibitors in neuroblastoma treatment” (Bioorg Med Chem Lett, 2018)
